Experimental data from ChEMBL document CHEMBL5661943, “ASAP - In vitro antiviral effect” (2024).
Where “and” joins values, the source holds several entries; their conditions need not be identical. Equal entries are not always repeated.

Tests used:
dengue virus type 2 [1] = experiment: Functional CPE-based assay to measure dose dependent changes in antiviral-drug inhibitory efficacy against Dengue virus type 2 New Guinea C in Huh7 cells. Cells are treated with antiviral candidates that are serially diluted. EC50 is reported via analysis of MTT/MTS assay as a readout of CPE. The assay has been performed by National Institute of Allergy and Infectious Diseases.; assay type: organism-based, Homo sapiens; details: Huh-7
dengue virus type 2 [2] = experiment: Functional immunofluorescence assay to measure dose dependent changes in antiviral-drug inhibitory efficacy against Dengue virus type 2 Thailand/16681/84 in Vero E6/TMPRSS2 cells (cotreated with P-gp inhibitor, Elacridar). Cells are treated with antiviral candidates that are serially diluted, following infection, cells are fixed. EC50 is reported via analysis of immunofluorescence staining. The assay has been performed by Icahn School of Medicine at Mount Sinai.; assay type: organism-based, Chlorocebus sabaeus, VeroE6/TMPRSS2
Zika virus [3] = experiment: EC50 is reported via analysis of immunofluorescence staining. The assay has been performed by Icahn School of Medicine at Mount Sinai.; assay type: functional, organism-based, Chlorocebus sabaeus, VeroE6/TMPRSS2
dengue virus type 2 [4] = experiment: Functional immunofluorescence assay to measure dose dependent changes in antiviral-drug inhibitory efficacy against Dengue virus type 2 Thailand/16681/84 in Vero E6/TMPRSS2 cells. Cells are treated with antiviral candidates that are serially diluted, following infection, cells are fixed. EC50 is reported via analysis of immunofluorescence staining. The assay has been performed by Icahn School of Medicine at Mount Sinai.; assay type: organism-based, Chlorocebus sabaeus; details: for EC50: VeroE6/TMPRSS2
dengue virus type 2 [5] = experiment: Functional assay to measure dose dependent changes in antiviral-drug inhibitory efficacy against Dengue virus type 2 New Guinea C in Vero E6 miRFP670 cells (cotreated with P-gp inhibitor, CP100356). Cells are treated with antiviral candidates that are serially diluted, following infection, cells are fixed. EC50 is reported via analysis of fluorescence intensity using high-content imager. The …; assay type: organism-based, Chlorocebus sabaeus, Vero C1008; details: for EC90: Baseline response 0 %, Maximum response 100 %, P-gp concentration 500 nM, P-gp inhibitor CP100356
Zika virus [6] = experiment: Functional CPE-based assay to measure dose dependent changes in antiviral-drug inhibitory efficacy against Zika virus MR766 in Vero E6 miRFP670 cells. Cells are treated with antiviral candidates that are serially diluted. EC50 is reported via analysis of MTS assay as a readout of CPE. The assay has been performed by KU Leuven.; assay type: organism-based, Chlorocebus sabaeus, Vero C1008; details: Zika virus
Zika virus [7] = experiment: Functional immunofluorescence assay to measure dose dependent changes in antiviral-drug inhibitory efficacy against Zika virus PRVABC59 in Vero E6/TMPRSS2 cells. Cells are treated with antiviral candidates that are serially diluted, following infection, cells are fixed. EC50 is reported via analysis of immunofluorescence staining. The assay has been performed by Icahn School of Medicine at Mount Sinai.; assay type: organism-based, Chlorocebus sabaeus
Zika virus [8] = experiment: Functional CPE-based assay to measure dose dependent changes in antiviral-drug inhibitory efficacy against Zika virus MR766 in Vero E6 miRFP670 cells (cotreated with P-gp inhibitor, CP100356). Cells are treated with antiviral candidates that are serially diluted. EC50 is reported via analysis of MTS assay as a readout of CPE. The assay has been performed by KU Leuven.; assay type: organism-based, Chlorocebus sabaeus, Vero C1008; details: Zika virus, Vero C1008

CCCCCC(=O)N[C@H](C(=O)NCc1cccc(CN)c1)c1ccc(OCc2ccccc2)cc1
EC50 (dengue virus type 2 [1]): > 18 µM

CCCCCC(=O)N[C@H](C(=O)Nc1ccc2[nH]ncc2c1)c1ccc(OCc2ccccc2)cc1
EC50 (dengue virus type 2 [1]): 6.2 µM

CCCCCC(=O)N[C@H](C(=O)Nc1ccc(C(N)=O)cc1)c1ccc(OCc2ccccc2)cc1
EC50 (dengue virus type 2 [1]): > 32 µM

NCc1ccc(-c2ncc(OCC3CCNCC3)nc2-c2ccc(C3CCOCC3)cc2)cc1
EC50 (dengue virus type 2 [1]): > 32 µM

CCCCCC(=O)N[C@H](C(=O)N1CCCCC1)c1ccc(OCc2ccccc2)cc1
EC50 (dengue virus type 2 [1]): > 19 µM

NCc1cccc(NC(=O)C[C@@H](NC(=O)OCc2ccccc2)c2ccc(OCc3ccccc3)cc2)c1
EC50 (dengue virus type 2 [1]): > 6.1 µM

NCc1cccc(NC(=O)[C@@H](NC(=O)OCc2ccccc2)c2ccc(OCc3ccccc3)cc2)c1
EC50 (dengue virus type 2 [1]): > 18 µM

COc1cc(Cc2c(-c3ccc(F)cc3)noc2C)nc(N2CCNCC2)n1
EC50 (dengue virus type 2 [1]): > 18 µM

c1ccc2sc(C3CCN(Cc4c[nH]c5ccccc45)CC3)nc2c1
EC50 (dengue virus type 2 [1]): > 18 µM | EC90 (dengue virus type 2 [2]; Baseline response 0 %, EC90 CI (lower) 2.225 uM, EC90 CI (upper) 16.418 uM, Hill slope -4.495, Maximum measured 125.314 %, Maximum response 100 %, Minimum measured 8.4 %, P-gp concentration 2 uM, R squared 0.582, P-gp inhibitor Elacidar): 16.1 µM | EC90 (dengue virus type 2 [2]; Dengue virus, VeroE6/TMPRSS2): 16.6 µM | EC50 (dengue virus type 2 [2]; veroe6/tmprss2): 2.19 µM and 9.85 µM | EC90 (Zika virus [3]; Baseline response 0 %, EC90 CI (lower) 0.007 uM, EC90 CI (upper) 47.388 uM, Hill slope -1.134, Maximum measured 126.957 %, Maximum response 50 %, Minimum measured 1.357 %, P-gp concentration 2 uM, R squared 0.32, P-gp inhibitor Elacidar): 28.6 µM | EC50 (Zika virus [3]; Zika virus, VeroE6/TMPRSS2): 2.33 µM | EC90 (Zika virus [3]; Zika virus, VeroE6/TMPRSS2, Baseline response 0 %, Hill slope -0.408, Maximum measured 80.807 %, Maximum response 100 %, Minimum measured 15.814 %, P-gp concentration 2 uM, R squared 0.363, P-gp inhibitor Elacidar): > 16.7 µM | EC50 (Zika virus [3]; veroe6/tmprss2): 4.11 µM

CC[C@@H](Cc1nnn[nH]1)c1ccc(NC(=O)c2cc(Cl)cc(NC(=O)OCc3ccccc3)c2)cc1
EC50 (dengue virus type 2 [4]): > 5.56 µM | EC90 (dengue virus type 2 [4]; VeroE6/TMPRSS2, Baseline response 0 %, Hill slope -0.186, Maximum measured 93.084 %, Maximum response 100 %, Minimum measured 36.595 %, R squared 0.076): > 5.56 µM | EC50 (dengue virus type 2 [5]; Dengue virus, Vero C1008): 43.5 µM | EC90 (dengue virus type 2 [5]; Dengue virus, Vero C1008, Hill slope -24.458, Maximum measured 108.477 %, Minimum measured 3.247 %, R squared 0.952): 47.6 µM | EC50 (dengue virus type 2 [2]; Dengue virus, VeroE6/TMPRSS2): 10.4 µM | EC90 (dengue virus type 2 [2]; Dengue virus, VeroE6/TMPRSS2, Baseline response 0 %, Hill slope -0.442, Maximum measured 140.797 %, Maximum response 100 %, Minimum measured 47.356 %, P-gp concentration 2 uM, R squared 0.351, P-gp inhibitor Elacidar): > 16.7 µM | EC50 (Zika virus [6]; Vero C1008): > 50 µM | EC90 (Zika virus [6]; Vero C1008, Baseline response 0 %, Hill slope 5.649, Maximum measured 5.74 %, Maximum response 100 %, Minimum measured -1.447 %, R squared 0.24): > 50 µM | EC50 (Zika virus [7]; VeroE6/TMPRSS2): > 50 µM | EC90 (Zika virus [7]; VeroE6/TMPRSS2): > 50 µM | EC50 (Zika virus [3]; Zika virus, VeroE6/TMPRSS2): 1.93 µM | EC90 (Zika virus [3]; Zika virus, VeroE6/TMPRSS2): 2.9 µM

NCCc1cccc(NC(=O)[C@H]2[C@H]3CCCCC[C@H]3[C@H]2NC(=O)OCc2ccccc2)c1
EC50 (dengue virus type 2 [4]): > 1.85 µM | EC90 (dengue virus type 2 [4]; VeroE6/TMPRSS2, Maximum measured 147.779 %, Minimum measured 82.782 %): > 1.85 µM | EC50 (dengue virus type 2 [5]; Dengue virus, Vero C1008): 8.83 µM | EC90 (dengue virus type 2 [5]; Dengue virus, Vero C1008, EC90 CI (lower) 4.071 uM, EC90 CI (upper) 8.838 uM, Hill slope -5.677, Maximum measured 107.479 %, Minimum measured 11.429 %, R squared 0.889): 13 µM | EC50 (dengue virus type 2 [2]; Dengue virus, VeroE6/TMPRSS2): 0.852 µM | EC90 (dengue virus type 2 [2]; Dengue virus, VeroE6/TMPRSS2, Baseline response 0 %, Hill slope -0.607, Maximum measured 105.284 %, Maximum response 100 %, Minimum measured 41.503 %, P-gp concentration 2 uM, R squared 0.471, P-gp inhibitor Elacidar): > 1.85 µM | EC50 (Zika virus [6]; Vero C1008): > 50 µM | EC90 (Zika virus [6]; Vero C1008, Baseline response 0 %, Hill slope 0.101, Maximum measured 6.245 %, Maximum response 100 %, Minimum measured -3.134 %, R squared 0.013): > 50 µM | EC50 (Zika virus [7]; VeroE6/TMPRSS2): 16.3 µM | EC90 (Zika virus [7]; VeroE6/TMPRSS2, Baseline response 0 %, Hill slope -67.816, Maximum measured 128.901 %, Maximum response 100 %, Minimum measured 6.251 %, R squared 0.855): 16.9 µM | EC50 (Zika virus [3]; Zika virus, VeroE6/TMPRSS2): 1.51 µM | EC90 (Zika virus [3]; Zika virus, VeroE6/TMPRSS2): 27.9 µM

Cc1ccc(NC(=O)c2cc(Cl)cc(NC(=O)OCc3ccccc3)c2)cc1CN
EC50 (dengue virus type 2 [4]): < 0.023 µM | EC90 (dengue virus type 2 [4]; VeroE6/TMPRSS2, Baseline response 0 %, Hill slope -0.25, Maximum measured 56.738 %, Maximum response 100 %, Minimum measured 21.854 %, R squared 0.324): > 5.56 µM | EC90 (dengue virus type 2 [5]; EC90 CI (lower) 0 uM, EC90 CI (upper) Could not be calculated, confidence interval too large, Hill slope -15.095, Maximum measured 108.434 %, Minimum measured 1.527 %, R squared 0.917): 3.71 µM | EC90 (dengue virus type 2 [5]; Hill slope -19.938, Maximum measured 107.168 %, Minimum measured 6.341 %, R squared 0.876): 1.73 µM | EC50 (dengue virus type 2 [5]; vero c1008): 3.21 µM and 1.55 µM | EC50 (Zika virus [8]): 2.61 µM | EC90 (Zika virus [8]; Baseline response 0 %, Hill slope 6.556, Maximum measured 76.39 %, Maximum response 100 %, Minimum measured 1.967 %, P-gp concentration 500 nM, R squared 0.915, P-gp inhibitor CP100356): > 3.12 µM | EC50 (dengue virus type 2 [2]; Dengue virus, VeroE6/TMPRSS2): 0.532 µM | EC90 (dengue virus type 2 [2]; Dengue virus, VeroE6/TMPRSS2, Baseline response 0 %, Hill slope -0.692, Maximum measured 108.544 %, Maximum response 100 %, Minimum measured 11.231 %, P-gp concentration 2 uM, R squared 0.808, P-gp inhibitor Elacidar): > 5.56 µM | EC50 (Zika virus [6]; Vero C1008): > 3.12 µM | EC90 (Zika virus [6]; Vero C1008, Baseline response 0 %, Hill slope 16.084, Maximum measured 41.192 %, Maximum response 100 %, Minimum measured -3.993 %, R squared 0.961): > 3.12 µM | EC50 (Zika virus [7]; VeroE6/TMPRSS2): > 50 µM | EC90 (Zika virus [7]; VeroE6/TMPRSS2, Maximum measured 627.464 %, Minimum measured 75.729 %): > 50 µM | EC90 (Zika virus [3]; Zika virus, VeroE6/TMPRSS2, Maximum measured 108.754 %, Minimum measured 39.323 %, P-gp concentration 2 uM, P-gp inhibitor Elacidar): > 5.56 µM | EC90 (Zika virus [3]; Zika virus, VeroE6/TMPRSS2, Baseline response 0 %, Hill slope -0.897, Maximum measured 104.466 %, Maximum response 100 %, Minimum measured 2.423 %, P-gp concentration 2 uM, R squared 0.573, P-gp inhibitor Elacidar): > 5.56 µM | EC50 (Zika virus [3]; veroe6/tmprss2): 0.903 µM and > 5.56 µM

Cc1[nH]c2ccccc2c1CN1CCC(c2c[nH]c3ncccc23)CC1
EC50 (dengue virus type 2 [4]): > 16.7 µM | EC90 (dengue virus type 2 [4]; VeroE6/TMPRSS2, Baseline response 0 %, Hill slope -0.265, Maximum measured 113.218 %, Maximum response 100 %, Minimum measured 41.507 %, R squared 0.203): > 16.7 µM | EC50 (dengue virus type 2 [5]; Dengue virus, Vero C1008): 7.05 µM | EC90 (dengue virus type 2 [5]; Dengue virus, Vero C1008, EC90 CI (lower) 3.837 uM, EC90 CI (upper) 5.899 uM, Hill slope -5.588, Maximum measured 107.944 %, Minimum measured 3.436 %, R squared 0.982): 10.5 µM | EC90 (dengue virus type 2 [2]; Baseline response 0 %, Hill slope -0.694, Maximum measured 115.257 %, Maximum response 100 %, Minimum measured 6.241 %, P-gp concentration 2 uM, R squared 0.775, P-gp inhibitor Elacidar): > 16.7 µM | EC90 (dengue virus type 2 [2]; Dengue virus, VeroE6/TMPRSS2, Baseline response 0 %, Hill slope -0.066, Maximum measured 94.332 %, Maximum response 100 %, Minimum measured 44.366 %, P-gp concentration 2 uM, R squared 0.022, P-gp inhibitor Elacidar): > 10 µM | EC50 (dengue virus type 2 [2]; veroe6/tmprss2): > 10 µM and 3.01 µM | EC50 (Zika virus [6]; Vero C1008): 6.51 µM | EC90 (Zika virus [6]; Vero C1008): 7.41 µM | EC50 (Zika virus [7]; VeroE6/TMPRSS2): 13.1 µM | EC90 (Zika virus [7]; VeroE6/TMPRSS2, Baseline response 0 %, Hill slope -0.459, Maximum measured 94.623 %, Maximum response 100 %, Minimum measured 4.56 %, R squared 0.472): > 50 µM | EC90 (Zika virus [3]; Baseline response 0 %, EC90 CI (lower) 0.367 uM, EC90 CI (upper) 8.175 uM, Hill slope -1.726, Maximum measured 163.583 %, Maximum response 100 %, Minimum measured 5.054 %, P-gp concentration 2 uM, R squared 0.694, P-gp inhibitor Elacidar): 22.1 µM | EC90 (Zika virus [3]; Baseline response 0 %, Hill slope -0.27, Maximum measured 107.973 %, Maximum response 100 %, Minimum measured 29.852 %, P-gp concentration 2 uM, R squared 0.23, P-gp inhibitor Elacidar): > 10 µM | EC50 (Zika virus [3]; Zika virus, VeroE6/TMPRSS2): > 10 µM | EC50 (Zika virus [3]; veroe6/tmprss2): 6.19 µM
